Test results as given in patent publication US11053226B2, “KRAS G12C inhibitors and methods of using the same” (Amgen Inc., priority 2018, dated 2021).
Like-named read-outs stand apart in the source and are kept apart here.

Assays:
[1] = system: Phosphorylation of ERK1/2 in A549 cells; assay: Phospho-ERK1/2 MSD Assay (A549); assay type: cell-based
[2] = system: Phosphorylation of ERK1/2 in MIA PaCa-2 cells; assay: Phospho-ERK1/2 MSD Assay; assay type: cell-based; details: MiaPaCa-2 cells
Description: (§1) For compounds in Table 9, the following assay conditions were employed:
Phospho-ERK1/2 MSD Assay:
Sixteen hours prior to compound treatment, MIA PaCa-2 cells were seeded in 96-well cell culture plates at a density of 25,000 cells/well and incubated at 37° C., 5% CO2. […] Following compound treatment, cells were stimulated with 10 ng/mL EGF (Roche 11376454001) for 10 min, washed with ice-cold Dulbecco's phosphate-buffered saline, no Ca^2+ or Mg^2+ (ThermoFisher Scientific 14190144), and then lysed in RIPA buffer (50 mM Tris-HCl pH 7.5, 1% Igepal, 0.5% sodium deoxycholate, 150 mM NaCl, and 0.5% sodium dodecyl sulfate) containing protease inhibitors (Roche 4693132001) and phosphatase inhibitors (Roche 4906837001). […] Assay plates were read on a Meso Scale Discovery Sector Imager 6000, and data were analyzed using a 4-parameter logistic model to calculate IC50 values.

[3] = target: GDP-bound KRAS protein (aa 1-169), containing both G12C and C118A amino acid substitutions (Homo sapiens (Human), UniProt P01116, C118A/G12C); assay: Coupled Nucleotide Exchange Assay; assay type: biochemical
Chain of GDP-bound KRAS protein (aa 1-169), containing both G12C and C118A amino acid substitutions (P01116 other isoform, or with tags, fused parts or gaps G12C/C118A): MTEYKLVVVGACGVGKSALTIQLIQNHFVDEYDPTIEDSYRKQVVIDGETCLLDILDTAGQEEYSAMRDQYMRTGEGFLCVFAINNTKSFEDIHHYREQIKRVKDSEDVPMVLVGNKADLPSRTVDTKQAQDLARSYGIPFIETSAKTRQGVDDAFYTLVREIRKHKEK
Description: as §1
Coupled Nucleotide Exchange Assay:
The assay plates were then read on a PerkinElmer EnVision Multilabel Reader, using AlphaScreen® technology, and data were analyzed using a 4-parameter logistic model to calculate IC50 values.

[4] = read-out: pERK IC50 (4 h, A549), 4 h compound treatment
[5] = read-out: Coupled Exchange IC50 (2 h), 2 h compound pre-incubation
[6] = read-out: Coupled Exchange IC50 (20 h), 20 h compound pre-incubation
[7] = Homo sapiens, read-out: pERK IC50 (4 h), 4 h compound treatment
[8] = Homo sapiens, MIA PaCa-2, read-out: pERK IC50 (4 h), 4 h compound treatment
[9] = Homo sapiens, A549, 4 h, read-out: pERK IC50 (4 h, A549), 4 h compound treatment
[10] = Homo sapiens, MIA PaCa-2, 4 h, read-out: pERK IC50 (4 h, MiaPaCa-2), 4 h compound treatment

Row | SMILES | IC50 [1, 9] | IC50 [2, 10] | other results
1 | C=CC(=O)N1CC(NC(=O)Cn2c3c(c4cc([N+](=O)[O-])ccc42)CCCC3)C1 [Example 143] | – | – | IC50 [1, 4]: > 100 µM; IC50 ([2]; read-out: pERK IC50 (4 h, MiaPaCa-2), 4 h compound treatment): 44.9 µM; IC50 [3, 5]: 4.53 µM; IC50 [3, 6]: 0.85 µM
2 | C=CC(=O)N1CC(NC(=O)Cn2c3c(c4cc(Br)ccc42)CC(c2ccccc2)CC3)C1 (stereo not shown) [Example 133] | – | – | IC50 [1, 7]: > 100 µM; IC50 [2, 8]: 37.9 µM; IC50 [3, 5]: 7.06 µM; IC50 [3, 6]: 1.33 µM
3 | C=CC(=O)N1CC(NC(=O)Cn2c(C)c(-c3cncnc3C(C)C)c3cc(Cl)ccc32)C1 [Example 5-2, 2-(5-Chloro-2-methyl-3-(4-(2-propanyl)-5-pyrimidinyl)-1H-indol-1-yl)-N-(1-(2-propenoyl)-3-azetidinyl)acetamide] | – | – | IC50 [1, 7]: > 100 µM; IC50 [2, 8]: 1.49 µM; IC50 [3, 5]: 1.05 µM
4 | C=CC(=O)N1CC(NC(=O)Cn2c(C)c(C(=O)N3CCc4c(cccc4OC)C3)c3cc(Br)ccc32)C1 [Example 13] | > 100 µM | 1.68 µM | IC50 [3, 5]: 0.3 µM; IC50 [3, 6]: 0.11 µM
5 | C=CC(=O)N1CC(NC(=O)Cn2cc(C3CC3)c3cc(Br)ccc32)C1 [Example 132] | – | – | IC50 [1, 7]: > 100 µM; IC50 [2, 8]: 37.9 µM; IC50 [3, 5]: 9.52 µM; IC50 [3, 6]: 1.71 µM
6 | C=CC(=O)N1CC(N(C)C(=O)Cn2c(C)c(C(=O)N3CCN(c4ccc(C#N)cn4)C[C@@H]3C)c3cc(Br)ccc32)C1 [Example 52] | > 100 µM | 4.83 µM | IC50 [3, 5]: 0.53 µM
7 | C=CC(=O)N1CC(NC(=O)Cn2c(CC)c(C(=O)N3CCc4c(ccnc4OC)C3)c3cc(Cl)cc(C)c32)C1 [Example 1-1, 2-(5-Chloro-2-ethyl-3-((5-methoxy-3,4-dihydro-2,6-naphthyridin-2(1H)-yl)carbonyl)-7-methyl-1H-indol-1-yl)-N-(1-(2-propenoyl)-3-azetidinyl)acetamide] | > 100 µM | 0.09 µM | Coupled Exchange IC50 (5 min) ([3]; 5 min compound pre-incubation): 0.20 µM; Coupled Exchange IC50 (2 h) ([3]; 2 h compound pre-incubation): 0.07 µM
8 | C=CC(=O)N1CC(NC(=O)Cn2cc(C(=O)NCCc3ccc(Cl)cc3Cl)c3cc(Br)ccc32)C1 [Example 161] | > 100 µM | 79.5 µM | IC50 [3, 5]: 0.99 µM; IC50 [3, 6]: 0.23 µM
9 | C=CC(=O)N1CC(NC(=O)Cn2cc(-c3ccccc3C(C)C)c3cc(Br)cc(C)c32)C1 [Example 119] | – | – | IC50 [1, 7]: > 100 µM; IC50 [2, 8]: 30.6 µM; IC50 [3, 5]: 1.71 µM; IC50 [3, 6]: 0.39 µM
10 | C=CC(=O)N1CC(NC(=O)Cn2c(C)c(C(=O)N3CCc4c(O)cccc4C3)c3cc(Br)ccc32)C1 [Example 58] | > 33.3 µM | 6.81 µM | IC50 [3, 5]: 0.28 µM; IC50 [3, 6]: 0.11 µM
11 | C=CC(=O)N1CC(NC(=O)Cn2cc(C(=O)N3CCN(c4ccc(CN(C)C)cn4)CC3)c3cc(Br)ccc32)C1 [Example 159] | > 100 µM | 57.4 µM | –
12 | C=CC(=O)N1CC(NC(=O)Cn2cc(C(=O)N3CCc4c(ccc(Cl)c4Cl)C3)c3cc(Br)ccc32)C1 [Example 96] | 30.5 µM | 17.4 µM | –
13 | C=CC(=O)N1CC(NC(=O)Cn2cc(C(=O)NCCc3nc4c(s3)CCCC4)c3cc(Br)ccc32)C1 [Example 171] | > 100 µM | > 100 µM | –
14 | C=CC(=O)N1CC(NC(=O)Cn2cc(C(=O)N3CCOC(c4ccccc4)C3)c3cc(Br)ccc32)C1 (stereo not shown) [Example 138] | > 100 µM | 40.5 µM | –
15 | C=CC(=O)N1CC(NC(=O)Cn2cc(C(=O)NCCOc3c(C)cccc3C)c3cc(Cl)cc(Cl)c32)C1 [Example 37] | > 100 µM | 3.33 µM | –
16 | C=CC(=O)N1CC(N(C)C(=O)Cn2c(C)c(C(=O)N3CCN(c4ccc(C)cn4)CC3)c3cc(Br)ccc32)C1 [Example 47] | > 100 µM | 4.16 µM | –
17 | C=CC(=O)N1CC(NC(=O)Cn2c(C3CC3)c(C(=O)N3CCC(C)(C)C3)c3cc(Cl)cc(C)c32)C1 [Example 20] | > 100 µM | 1.94 µM | –
18 | C=CC(=O)N1CC(NC(=O)Cn2cc(C(=O)NCCc3nccs3)c3cc(Br)ccc32)C1 [Example 123] | > 100 µM | 32.4 µM | –
19 | C=CC(=O)N1CC(NC(=O)Cn2c(C)c(C(=O)N3C(C)COCC3C)c3cc(Br)cc(C)c32)C1 (stereo not shown) [Example 26] | > 33.3 µM | 2.48 µM | –

Row | SMILES | IC50 [1, 9] | IC50 [2, 10] | other results
20 | C=CC(=O)N1CC(N2CCC(n3c(C)c(C(=O)N4CCc5c(cccc5OC)C4)c4cc(Br)ccc43)C2=O)C1 (stereo not shown) [Example 42] | > 33.3 µM | 3.78 µM | –
21 | C=CC(=O)N1CC(N2CC[C@@H](n3c(C)c(C(=O)N4CCc5c(cccc5OC)C4)c4cc(Br)ccc43)C2=O)C1 [Example 50] | > 33.3 µM | 4.81 µM | –
22 | C=CC(=O)N1CC(NC(=O)Cn2c(C)c(C(=O)NCCC(=O)Nc3ccccc3CC)c3cc(Br)ccc32)C1 [Example 179] | > 100 µM | > 100 µM | –
23 | C=CC(=O)N1CC(NC(=O)Cn2c(C)c(C(=O)C3CCc4ccccc4C3)c3cc(Br)ccc32)C1 (stereo not shown) [Example 65] | 3.47 µM | 7.99 µM | –
24 | C=CC(=O)N1CC(NC(=O)Cn2cc(C(=O)N3CCc4c(ccnc4OC)C3)c3cc(Br)ccc32)C1 [Example 89] | > 100 µM | 14.9 µM | –
25 | C=CC(=O)N1CC(NC(=O)Cn2cc(C(=O)N3CCN(c4ccc([N+](=O)[O-])cc4)CC3)c3cc(Br)ccc32)C1 [Example 166] | > 100 µM | > 100 µM | –
26 | C=CC(=O)N1CC(NC(=O)Cn2cc(C(=O)N3CCc4cc(Br)ccc4C3)c3cc(Br)ccc32)C1 [Example 104] | – | 21.7 µM | IC50 [1, 4]: 14.6 µM
27 | C=CC(=O)N1CC(NC(=O)Cn2cc(C(=O)NCCc3c(OC)ccc4ccccc34)c3cc(Br)ccc32)C1 [Example 168] | > 100 µM | > 100 µM | –
28 | C=CC(=O)N1CC(NC(=O)Cn2cc(C(=O)NCCc3nc4ccccc4n3C)c3cc(Br)ccc32)C1 [Example 174] | > 100 µM | > 100 µM | –
29 | C=CC(=O)N1CC(NC(=O)Cn2cc(C(=O)N3CCN(c4cc(C)ccn4)CC3)c3cc(Br)ccc32)C1 [Example 79] | > 100 µM | 11.8 µM | –
30 | C=CC(=O)N1CC(N(CC)C(=O)Cn2c(C)c(C(=O)N3CCc4ccccc4C3C)c3cc(Br)cc(C)c32)C1 (stereo not shown) [Example 72] | 63.4 µM | 10.6 µM | –
31 | C=CC(=O)N1CC(NC(=O)Cn2c(C3CC3)c(C(=O)N3CCOC(C)(c4ccccc4)C3)c3cc(Cl)cc(C)c32)C1 (stereo not shown) [Example 31] | > 100 µM | 2.7 µM | –
32 | C=CC(=O)N1CC(NC(=O)Cn2c(C)c(C(=O)N3CCN(c4ccc(C(F)(F)F)cn4)CC3)c3cc(Br)ccc32)C1 [Example 40] | 44.6 µM | 3.42 µM | –
33 | C=CC(=O)N1CC(C)(NC(=O)Cn2c(C)c(C(=O)N3CCc4c(cccc4OC)C3)c3cc(Br)ccc32)C1 [Example 77] | 10.2 µM | 11.6 µM | –
34 | C=CC(=O)N1CC(NC(=O)Cn2cc(C(=O)N3CCN(c4ncccc4C)CC3)c3cc(Br)ccc32)C1 [Example 61] | > 33.3 µM | 7.06 µM | –
35 | C=CC(=O)N1CC(NC(=O)Cn2cc(C(=O)N3CCc4c(OC)ccc(Br)c4C3)c3cc(Br)ccc32)C1 [Example 157] | 42.5 µM | 53.6 µM | –
36 | C=CC(=O)N1CC(NC(=O)Cn2cc(C(=O)N3CC4(CCN4c4ccccn4)C3)c3cc(Br)ccc32)C1 [Example 148] | > 100 µM | 50.2 µM | –
37 | C=CC(=O)N1CC(NC(=O)Cn2c(C)c(C(=O)N3CCN(c4ccc(C#N)cn4)C[C@H]3C)c3cc(Br)ccc32)C1 [Example 16] | > 100 µM | 1.79 µM | –
38 | C=CC(=O)N1CC(NC(=O)Cn2c(C)c(C(=O)N3CCN(c4ccc(C#N)cn4)C[C@@H]3C)c3cc(Br)ccc32)C1 [Example 81] | > 100 µM | 12.5 µM | –
